Experimental data from ChEMBL document CHEMBL1201862, “PubChem BioAssay data set” (2004).
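Protocol summary: plate cells (96-well), add compound at 5 concentrations, incubate 48 h, interpolate endpoints linearly. Here, GI50 denotes the concentration required for 50% inhibition of growth.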 The source made the active and inactive calls. Rule as the data show it: active = GI50 up to about 1.1 µM and inactive = higher.

Experiments:
Test in all cases: NCI anticancer screen, dose series, 48 h
OVCAR-3 = tested on: OVCAR-3
MDA-MB-231 = tested on: MDA-MB-231
M14 = tested on: M14
SK-OV-3 = tested on: SK-OV-3
NCI-H226 = tested on: NCI-H226
HOP-92 = tested on: HOP-92
NCI-H522 = tested on: NCI-H522
SNB-19 = tested on: SNB-19
RPMI-8226 = tested on: RPMI-8226
K562 = tested on: K562
SR = tested on: SR
A549 = tested on: A549
UACC-257 = tested on: UACC-257
KM12 = tested on: KM12
MOLT-4 = tested on: MOLT-4
IGROV-1 = tested on: IGROV-1
NCI-H460 = tested on: NCI-H460
MDA-MB-435 = tested on: MDA-MB-435
SK-MEL-28 = tested on: SK-MEL-28
U-251 = tested on: U-251

| Structure (SMILES) | GI50 (OVCAR-3) | GI50 (MDA-MB-231) | GI50 (M14) | GI50 (SK-OV-3) | GI50 (NCI-H226) | GI50 (HOP-92) | GI50 (NCI-H522) | GI50 (SNB-19) | GI50 (RPMI-8226) | GI50 (K562) | GI50 (SR) | GI50 (A549) | GI50 (UACC-257) | GI50 (KM12) | GI50 (MOLT-4) | GI50 (IGROV-1) | GI50 (NCI-H460) | GI50 (MDA-MB-435) | GI50 (SK-MEL-28) | GI50 (U-251) |
| --- | --- | --- | --- | --- | --- | --- | --- | --- | --- | --- | --- | --- | --- | --- | --- | --- | --- | --- | --- | --- |
| COC(=O)C(=O)C(C(=O)C(=O)Nc1ccccc1C(C)=O)c1nc2ccc(C(=O)c3ccccc3)cc2nc1O (centres undefined) | 73.6 µM (inactive) | 78 µM (inactive) | > 100 µM (inactive) | > 100 µM (inactive) | 98.2 µM (inactive) | 75 µM (inactive) | 28.4 µM (inactive) | 52 µM (inactive) | 63.1 µM (inactive) | 39.4 µM (inactive) | 3.77 µM (inactive) | > 100 µM (inactive) | > 100 µM (inactive) | 27 µM (inactive) | 56.2 µM (inactive) | 20.2 µM (inactive) | 58.9 µM (inactive) | – | – | – |
| CC(C)(C)SC1=CCC[C@@H](P(=O)(c2ccccc2)c2ccccc2)[C@@H]2CCC[C@@H]12 | 17 µM (inactive) | – | 15.3 µM (inactive) | 15.9 µM (inactive) | 17.7 µM (inactive) | 13.7 µM (inactive) | 15.7 µM (inactive) | 16.1 µM (inactive) | 19.1 µM (inactive) | 19.3 µM (inactive) | 17 µM (inactive) | 17.2 µM (inactive) | 17 µM (inactive) | 16.3 µM (inactive) | 16 µM (inactive) | 17.2 µM (inactive) | 15.7 µM (inactive) | 15 µM (inactive) | 24.3 µM (inactive) | 17.5 µM (inactive) |
| CC1(C)CSCC(C)(C)C(=N/N)/C1=N\N | > 100 µM (inactive) | – | > 100 µM (inactive) | > 100 µM (inactive) | > 100 µM (inactive) | > 100 µM (inactive) | > 100 µM (inactive) | > 100 µM (inactive) | – | > 100 µM (inactive) | > 100 µM (inactive) | > 100 µM (inactive) | > 100 µM (inactive) | > 100 µM (inactive) | – | > 100 µM (inactive) | > 100 µM (inactive) | > 100 µM (inactive) | > 100 µM (inactive) | > 100 µM (inactive) |
| CC(C)/C(Cl)=N\OC(=O)Nc1cccc(F)c1 | 17 µM (inactive) | 16.9 µM (inactive) | 0.933 µM (active) | 19.7 µM (inactive) | 17.2 µM (inactive) | 1.46 µM (inactive) | 1.49 µM (inactive) | > 100 µM (inactive) | 4.34 µM (inactive) | 2.19 µM (inactive) | 2.35 µM (inactive) | 17.5 µM (inactive) | 15.8 µM (inactive) | 12.1 µM (inactive) | 2.28 µM (inactive) | 18.6 µM (inactive) | 27.4 µM (inactive) | – | 16.2 µM (inactive) | 17.2 µM (inactive) |
| CCOc1ccc(/N=N/c2ccc3oc(=O)c(/C(C)=N/NC(=O)CC(=O)Nc4cccc(OC)c4)cc3c2)cc1 | 13.4 µM (inactive) | – | 16.4 µM (inactive) | 38.8 µM (inactive) | > 39.7 µM (inactive) | 19.1 µM (inactive) | 21.4 µM (inactive) | 12.2 µM (inactive) | 8.53 µM (inactive) | 7.96 µM (inactive) | 2.64 µM (inactive) | 28.2 µM (inactive) | 3.8 µM (inactive) | 20.8 µM (inactive) | 3.56 µM (inactive) | 23.6 µM (inactive) | 20 µM (inactive) | – | 20.8 µM (inactive) | 10.6 µM (inactive) |
| CC(=O)/C(=C/n1c(=S)sc2ccccc21)C(=O)Nc1ccccc1C | 59.4 µM (inactive) | > 100 µM (inactive) | > 100 µM (inactive) | > 100 µM (inactive) | 31.1 µM (inactive) | 41.1 µM (inactive) | – | > 100 µM (inactive) | – | – | – | > 100 µM (inactive) | > 100 µM (inactive) | > 100 µM (inactive) | > 100 µM (inactive) | 59.8 µM (inactive) | > 100 µM (inactive) | > 100 µM (inactive) | > 100 µM (inactive) | > 100 µM (inactive) |
| C[C@H]1ON2CCC[C@@H]2[C@@H]1C(=O)N1C2CC3CCC2(CS1(=O)=O)C3(C)C (some centres undefined) | > 100 µM (inactive) | > 100 µM (inactive) | > 100 µM (inactive) | > 100 µM (inactive) | > 100 µM (inactive) | – | > 100 µM (inactive) | > 100 µM (inactive) | – | > 100 µM (inactive) | – | > 100 µM (inactive) | > 100 µM (inactive) | > 100 µM (inactive) | – | > 100 µM (inactive) | > 100 µM (inactive) | > 100 µM (inactive) | > 100 µM (inactive) | > 100 µM (inactive) |
| CN(C)/N=N/c1ccc(S(N)(=O)=O)cc1 | > 100 µM (inactive) | – | > 100 µM (inactive) | > 100 µM (inactive) | > 100 µM (inactive) | > 100 µM (inactive) | > 100 µM (inactive) | > 100 µM (inactive) | > 100 µM (inactive) | > 100 µM (inactive) | > 100 µM (inactive) | > 100 µM (inactive) | > 100 µM (inactive) | > 100 µM (inactive) | > 100 µM (inactive) | > 100 µM (inactive) | > 100 µM (inactive) | – | > 100 µM (inactive) | > 100 µM (inactive) |
| Cn1cc(C=C(C#N)C#N)c(=O)n(C)c1=O | > 100 µM (inactive) | > 100 µM (inactive) | > 100 µM (inactive) | > 100 µM (inactive) | > 100 µM (inactive) | > 100 µM (inactive) | 37.6 µM (inactive) | > 100 µM (inactive) | 52 µM (inactive) | – | – | > 100 µM (inactive) | > 100 µM (inactive) | > 100 µM (inactive) | 0.809 µM (active) | > 100 µM (inactive) | > 100 µM (inactive) | > 100 µM (inactive) | > 100 µM (inactive) | > 100 µM (inactive) |
| Cc1cccc(C)c1CO | > 100 µM (inactive) | – | > 100 µM (inactive) | > 100 µM (inactive) | > 100 µM (inactive) | > 100 µM (inactive) | > 100 µM (inactive) | > 100 µM (inactive) | > 100 µM (inactive) | > 100 µM (inactive) | > 100 µM (inactive) | > 100 µM (inactive) | > 100 µM (inactive) | > 100 µM (inactive) | > 100 µM (inactive) | > 100 µM (inactive) | > 100 µM (inactive) | – | – | > 100 µM (inactive) |
| O=C(N/N=C/c1ccccc1)c1c(-c2cccnc2)cnc2ccccc12 | > 100 µM (inactive) | – | > 100 µM (inactive) | 84.5 µM (inactive) | > 100 µM (inactive) | > 100 µM (inactive) | > 100 µM (inactive) | > 100 µM (inactive) | > 100 µM (inactive) | 44.9 µM (inactive) | 77.1 µM (inactive) | > 100 µM (inactive) | 88.9 µM (inactive) | 33 µM (inactive) | > 100 µM (inactive) | 58.7 µM (inactive) | 61.1 µM (inactive) | – | > 100 µM (inactive) | 56.4 µM (inactive) |
| O=C1C=CC(=O)c2cc(Sc3ccccc3)c(=O)c(Sc3ccccc3)cc21 | 50.9 µM (inactive) | – | > 100 µM (inactive) | 43.2 µM (inactive) | > 100 µM (inactive) | 18.9 µM (inactive) | 12.4 µM (inactive) | > 100 µM (inactive) | 37.3 µM (inactive) | 28.1 µM (inactive) | 25.5 µM (inactive) | 56.5 µM (inactive) | > 100 µM (inactive) | > 100 µM (inactive) | 24 µM (inactive) | 68.5 µM (inactive) | > 100 µM (inactive) | – | 95.1 µM (inactive) | 46.3 µM (inactive) |
| CCCCCC/C(CC(=O)CCC(=O)NCCc1ccccc1)=N\Nc1ccc([N+](=O)[O-])cc1[N+](=O)[O-] | 51.3 µM (inactive) | – | > 100 µM (inactive) | > 100 µM (inactive) | 60.4 µM (inactive) | 41.7 µM (inactive) | 39.9 µM (inactive) | > 100 µM (inactive) | 27 µM (inactive) | 38.1 µM (inactive) | 20.6 µM (inactive) | 87.7 µM (inactive) | 74.8 µM (inactive) | 67.8 µM (inactive) | 21.4 µM (inactive) | > 100 µM (inactive) | > 100 µM (inactive) | – | > 100 µM (inactive) | 97.1 µM (inactive) |
| CCOC(=O)C(C)c1nc2cc(F)c(F)cc2[nH]c1=O (centres undefined) | > 100 µM (inactive) | > 100 µM (inactive) | > 100 µM (inactive) | > 100 µM (inactive) | > 100 µM (inactive) | > 100 µM (inactive) | – | > 100 µM (inactive) | > 100 µM (inactive) | > 100 µM (inactive) | – | > 100 µM (inactive) | > 100 µM (inactive) | > 100 µM (inactive) | > 100 µM (inactive) | – | > 100 µM (inactive) | > 100 µM (inactive) | > 100 µM (inactive) | > 100 µM (inactive) |
| COC(=O)C1=C(O)C(O)=C(C(=O)OC)CC1 | > 100 µM (inactive) | – | > 100 µM (inactive) | > 100 µM (inactive) | > 100 µM (inactive) | > 100 µM (inactive) | > 100 µM (inactive) | > 100 µM (inactive) | > 100 µM (inactive) | > 100 µM (inactive) | > 100 µM (inactive) | 37 µM (inactive) | > 100 µM (inactive) | > 100 µM (inactive) | > 100 µM (inactive) | > 100 µM (inactive) | > 100 µM (inactive) | – | > 100 µM (inactive) | > 100 µM (inactive) |
